Target: T1, human BRD4 bromodomain II (Homo sapiens, UniProt O60885)
T1 construct: human BRD4 bromodomain II [based on Genbank NM_058243, residues 349-460]; host or cells: E. coli
Assay: Bromodomain binding assay (AlphaScreen), BRD4 BDII
Conditions: AlphaScreen assay, Table C2; read-out: BRD4 BDII IC50
In short: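 Compounds (10-point, 3-fold series) were preincubated 30 min at room temperature with E. coli-expressed N-terminal His6-tagged BRD4 BDII (residues 349-460) or BDI (residues 44-170) in 50 mM HEPES pH 7.5, 100 mM NaCl, 0.05% CHAPS, 0.1% BSA, 1% DMSO. Displacement of biotinylated tetra-acetylated H4 1-21 peptide was read by AlphaScreen; IC50 from curve fitting.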

Compound | IC50
COc1cc(F)cc(-c2cccc(-c3ccc(NC(C)=O)c(F)c3)c2O)c1 [Example 146, N-(3,3″-difluoro-2′-hydroxy-5″-methoxy-[1,1′:3′,1″-terphenyl]-4-yl)acetamide] | > 100 nM
COc1ccc(C)c(-c2cccc(-c3ccc(NC(C)=O)c(F)c3)c2O)c1 [Example 147, N-(3-fluoro-2′-hydroxy-5″-methoxy-2″-methyl-[1,1′:3′,1″-terphenyl]-4-yl)acetamide] | > 100 nM
CC(=O)Nc1ccc(-c2cccc(-c3nnc(N4CCNCC4)[nH]3)c2O)cc1F [Example 148, N-(3-fluoro-2′-hydroxy-3′-(5-(piperazin-1-yl)-4H-1,2,4-triazol-3-yl)-[1,1′-biphenyl]-4-yl)acetamide] | > 100 nM
CNC(=O)Nc1ccc(-c2cccc(-c3cc(N4CCNCC4)no3)c2O)cc1 [Example 149, 1-(2′-hydroxy-3′-(3-(piperazin-1-yl)isoxazol-5-yl)-[1,1′-biphenyl]-4-yl)-3-methylurea] | > 100 nM
CC(=O)Nc1ccc(-c2cccc(-c3cc(N4CCN(C)CC4)no3)c2O)cc1F [Example 150, N-(3-fluoro-2′-hydroxy-3′-(3-(4-methylpiperazin-1-yl)isoxazol-5-yl)-[1,1′-biphenyl]-4-yl)acetamide] | 10 to 100 nM
CCN1CCN(c2cc(-c3cccc(-c4ccc(NC(C)=O)c(F)c4)c3O)on2)CC1 [Example 151, N-(3′-(3-(4-ethylpiperazin-1-yl)isoxazol-5-yl)-3-fluoro-2′-hydroxy-[1,1′-biphenyl]-4-yl)acetamide] | 10 to 100 nM
CC(=O)Nc1ccc(-c2cccc(-c3cc(N4CCN(C(C)C)CC4)no3)c2O)cc1F [Example 152, N-(3-fluoro-2′-hydroxy-3′-(3-(4-isopropylpiperazin-1-yl)isoxazol-5-yl)-[1,1′-biphenyl]-4-yl)acetamide 2,2,2-trifluoroacetate] | 10 to 100 nM
CC(=O)Nc1ccc(-c2cccc(-c3cc(N4CCN(C5COC5)CC4)no3)c2O)cc1F [Example 153, N-(3-fluoro-2′-hydroxy-3′-(3-(4-(oxetan-3-yl)piperazin-1-yl)isoxazol-5-yl)-[1,1′-biphenyl]-4-yl)acetamide] | 10 to 100 nM
CC(=O)Nc1c(Cl)cc(-c2cccc(-c3cc(N4CCNCC4)no3)c2O)cc1Cl [Example 154, N-(3,5-dichloro-2′-hydroxy-3′-(3-(piperazin-1-yl)isoxazol-5-yl)-[1,1′-biphenyl]-4-yl)acetamide] | 10 to 100 nM
CC(=O)Nc1ccc(-c2cccc(-c3ccc4c(c3)CNC(=O)N4)c2O)cc1F [Example 155, N-(3-fluoro-2′-hydroxy-3′-(2-oxo-1,2,3,4-tetrahydroquinazolin-6-yl)-[1,1′-biphenyl]-4-yl)acetamide] | 10 to 100 nM
CC(=O)Nc1ccc(-c2cccc(-c3cc4ccccc4[nH]3)c2O)cc1F [Example 156, N-(3-fluoro-2′-hydroxy-3′-(1H-indol-2-yl)-[1,1′-biphenyl]-4-yl)acetamide] | > 100 nM
COc1cc(-c2cccc(-c3ccc(NC(C)=O)c(F)c3)c2O)ccc1F [Example 157, N-(3,4″-difluoro-2′-hydroxy-3″-methoxy-[1,1′:3′,1″-terphenyl]-4-yl)acetamide] | > 100 nM
COc1ccc(F)c(-c2cccc(-c3ccc(NC(C)=O)c(F)c3)c2O)c1 [Example 158, N-(2″,3-difluoro-2′-hydroxy-5″-methoxy-[1,1′:3′,1″-terphenyl]-4-yl)acetamide] | > 100 nM
CC(=O)Nc1ccc(-c2cccc(-c3cccc(N4CCC(N)CC4)c3)c2O)cc1F [Example 159, N-(3″-(4-aminopiperidin-1-yl)-3-fluoro-2′-hydroxy-[1,1′:3′,1″-terphenyl]-4-yl)acetamide 2,2,2-trifluoroacetate] | 10 to 100 nM
CC(=O)Nc1ccc(-c2cccc(-c3cc(N4CCNCC4)n(C)n3)c2O)cc1F [Example 160, N-(3-fluoro-2′-hydroxy-3′-(1-methyl-5-(piperazin-1-yl)-1H-pyrazol-3-yl)-[1,1′-biphenyl]-4-yl)acetamide] | > 100 nM
CC(=O)Nc1ccc(-c2cccc(-c3cc(N4CCNCC4)[nH]n3)c2O)cc1F [Example 162, N-(3-fluoro-2′-hydroxy-3′-(5-(piperazin-1-yl)-1H-pyrazol-3-yl)-[1,1′-biphenyl]-4-yl)acetamide ditrifluoroacetate] | > 100 nM
CC(=O)Nc1c(F)cc(-c2cccc(-c3cccc(N4CCNCC4)c3)c2O)cc1OC1CCC1 [Example 167, N-(3-cyclobutoxy-5-fluoro-2′-hydroxy-3″-(piperazin-1-yl)-[1,1′:3′,1″-terphenyl]-4-yl)acetamide] | 1 to 10 nM

Continued, values first:

IC50 | Compound
> 100 nM | COc1cc(-c2cccc(-c3cc(Cl)c(N4CCCC4=O)c(Cl)c3)c2O)ccc1NC(C)=O [Example 165, N-(3″,5″-dichloro-2′-hydroxy-3-methoxy-4″-(2-oxopyrrolidin-1-yl)-[1,1′:3′,1″-terphenyl]-4-yl)acetamide]
> 100 nM | CC(=O)Nc1ccc(-c2cccc(-c3cccc(N4CCCCC4)c3)c2O)cc1F [Example 166, N-(3-fluoro-2′-hydroxy-3″-(piperidin-1-yl)-[1,1′:3′,1″-terphenyl]-4-yl)acetamide]
10 to 100 nM | CC(=O)Nc1ccc(-c2cccc(-c3cccc(N4CCNC[C@@H]4C)c3)c2O)cc1F [Example 168, (S)-N-(3-fluoro-2′-hydroxy-3″-(2-methylpiperazin-1-yl)-[1,1′:3′,1″-terphenyl]-4-yl)acetamide]
1 to 10 nM | CC(=O)Nc1ccc(-c2cccc(-c3cccc(N4CCNC[C@H]4C)c3)c2O)cc1F [Example 169, (R)-N-(3-fluoro-2′-hydroxy-3″-(2-methylpiperazin-1-yl)-[1,1′:3′,1″-terphenyl]-4-yl)acetamide]
10 to 100 nM | CC(=O)Nc1ccc(-c2cccc(-c3cccc(N4CC5CC4CN5)c3)c2O)cc1F (stereo not drawn) [Example 170, N-(3″-(2,5-diazabicyclo[2.2.1]heptan-2-yl)-3-fluoro-2′-hydroxy-[1,1:3′,1″-terphenyl]-4-yl)acetamide]
> 100 nM | O=C1CCCN1c1c(Cl)cc(-c2cccc(-c3cc(N4CCNCC4)no3)c2O)cc1Cl [Example 172, 1-(3,5-dichloro-2′-hydroxy-3′-(3-(piperazin-1-yl)isoxazol-5-yl)-[1,1′-biphenyl]-4-yl)pyrrolidin-2-one]
10 to 100 nM | CC(=O)Nc1ccc(-c2cccc(-c3cccc(N4CC5CCC4CN5)c3)c2O)cc1F (stereo not drawn) [Example 174, N-(3″-(2,5-diazabicyclo[2.2.2]octan-2-yl)-3-fluoro-2′-hydroxy-[1,1′:3′,1″-terphenyl]-4-yl)acetamide]
10 to 100 nM | CC(=O)Nc1c(F)cc(-c2cccc(-c3cccc(N4CCNCC4)c3)c2O)cc1OC1CC1 [Example 175, N-(3-cyclopropoxy-5-fluoro-2′-hydroxy-3″-(piperazin-1-yl)-[1,1′:3′,1″-terphenyl]-4-yl)acetamide]
10 to 100 nM | CC(=O)Nc1ccc(-c2cccc(-c3cccc(N4C[C@H]5CC[C@@H](C4)N5)c3)c2O)cc1F [Example 176, N-(3″-((1R,5S)-3,8-diazabicyclo[3.2.1]octan-3-yl)-3-fluoro-2′-hydroxy-[1,1′:3′,1″-terphenyl]-4-yl)acetamide]
10 to 100 nM | CC(=O)Nc1ccc(-c2cccc(-c3cccc(N4CCC(N)C4)c3)c2O)cc1F (stereo not drawn) [Example 177, N-(3″-(3-aminopyrrolidin-1-yl)-3-fluoro-2′-hydroxy-[1,1′:3′,1″-terphenyl]-4-yl)acetamide]

Reference: patent US20250179059A1 (The Regents of the University of California, priority 2021, published 2025)
